One block for each compound: values may come before it.
Experiments:
[1] = tested on: PDE4; experiment: Inhibition of PDE4 activity (method of Bauer and Schwabe, adapted to microtiter plates); format: biochemical; conditions: inhibitory concentration as −log IC50 (mol/l)
Experimental: The activity test was carried out according to the method of Bauer and Schwabe, which was adapted to microtiter plates (Naunyn-Schmiedeberg's Arch. Pharmacol. 1980, 311, 193-198). The PDE reaction takes place in the first step here. In a second step, the resulting 5′-nucleotide is cleaved by a 5′-nucleotidase of the snake venom of Crotalus atrox to the uncharged nucleoside. In the third step, the nucleoside is separated from the remaining charged substrate on ion-exchange columns. The columns are eluted directly into minivials, into which 2 ml of scintillator fluid are additionally added, for counting using 2 ml of 30 mM ammonium formate (pH 6.0).
The inhibitory values determined for the compounds according to the invention [inhibitory concentration as −log Ic50 (mol/l)] follow from the following Table A, in which the numbers of the compounds correspond to the numbers of the examples.

melting point: 182 to 185 °C
SMILES: COc1cc2c(cc1OC)C1CCCCC1N=C2c1cccc(C(=O)N2CCCCC2)c1 (single isomer, unassigned; (-)) [Compound 17, (−)-cis-8,9-Dimethoxy-[3-(piperidin-1-ylcarbonyl)phenyl]-1,2,3,4,4a,10b-hexahydrophenanthridine]
−log IC50, inhibition of the PDE4 activity [1]: 8.13

melting point: 112.5 to 114 °C
SMILES: COc1cc2c(cc1OC)[C@@H]1CCCC[C@@H]1N=C2c1cccc(C(C)=O)c1 [Compound 49, (−)cis-8,9-Dimethoxy-6-(3-acetylphenyl)-1,2,3,4,4a,10b-hexahydrophenanthridine]
−log IC50, inhibition of the PDE4 activity [1]: 7.17

melting point: 124 to 125 °C
SMILES: COC(=O)Cc1ccc(C2=N[C@H]3CCCC[C@H]3c3cc(OC)c(OC)cc32)cc1 [Compound 18, (−)-cis-8,9-Dimethoxy-6-(4-methoxycarbonylmethylphenyl)-1,2,3,4,4a,10b-hexahydrophenanthridine]
−log IC50, inhibition of the PDE4 activity [1]: 7.49

SMILES: COc1cc2c(cc1OC)[C@@H]1CCCC[C@@H]1N=C2c1cc(OCC2CC2)cc(OCC2CC2)c1 [Compound 41, (−)-cis8,9-Dimethoxy-6-[3,5-bis(cyclopropylmethoxy)phenyl]-1,2,3,4,4a,10b-hexahydrophenanthridine]
−log IC50, inhibition of the PDE4 activity [1]: 8.03

SMILES: COc1cc2c(cc1OC)[C@@H]1CCCC[C@@H]1N=C2c1ccc(OC)c(OCc2ccccc2)c1 [Compound 11, (+)-cis-6-(3-Benzyloxy-4-methoxyphenyl)-8,9-dimethoxy-1,2,3,4,4a,10b-hexahydrophenanthridine]
−log IC50, inhibition of the PDE4 activity [1]: 8.03

SMILES: COc1ccc(Oc2cccc(C3=N[C@H]4CCCC[C@H]4c4cc(OC)c(OC)cc43)c2)cc1 [Compound 36, (−)-cis-8,9-Dimethoxy-6-[3-(4-methoxyphenoxy)phenyl]-1,2,3,4,4a,10b-hexahydrophenanthridine]
−log IC50, inhibition of the PDE4 activity [1]: 8.78

SMILES: COc1cc2c(cc1OC)[C@@H]1CCCC[C@@H]1N=C2c1cccc(OS(C)(=O)=O)c1 [Compound 13, (−)-cis-8,9-Dimethoxy-6-(3-methanesulfonyloxyphenyl)-1,2,3,4,4a,10b-hexahydrophenanthridine]
−log IC50, inhibition of the PDE4 activity [1]: 8.33

SMILES: COc1cc2c(cc1OC)C1CCCCC1N=C2c1ccc(OC)c(N2CCCC2)c1 (single isomer, unassigned; (-)) [Compound 46, (−)-cis-8,9-Dimethoxy-6-[(4-methoxy-3-pyrrolidin-1-yl)phenyl]-1,2,3,4,4a,10b-hexahydrophenanthridine]
−log IC50, inhibition of the PDE4 activity [1]: 7.16

SMILES: COc1cc2c(cc1OC)[C@@H]1CCCC[C@@H]1N=C2c1ccc(OC)c(OC2CCCC2)c1 [Compound 9, (−)-cis-6-(3-Cyclopentyloxy-4-methoxyphenyl)-8,9-dimethoxy-1,2,3,4,4a,10b-hexahydrophenanthridine]
−log IC50, inhibition of the PDE4 activity [1]: 7.79

SMILES: COc1cc2c(cc1OC)[C@@H]1CCCC[C@@H]1N=C2c1ccc(S(=O)(=O)c2ccccc2)cc1 [Compound 34, (−)-cis-8,9-Dimethoxy-6-[4-(phenylsulfonyl)phenyl]-1,2,3,4,4a,10b-hexahydrophenanthridine]
−log IC50, inhibition of the PDE4 activity [1]: 7.89

SMILES: COc1cc2c(cc1OC)[C@@H]1CCCC[C@@H]1N=C2c1ccc(C(=O)c2cccc(Cl)c2)cc1 (relative stereo) [Compound 28, (−)-cis-8,9-Dimethoxy-6-[4-(3-chlorbenzoyl)phenyl]-1,2,3,4,4a,10b-hexahydrophenanthridine]
−log IC50, inhibition of the PDE4 activity [1]: 7.61

SMILES: COc1cc2c(cc1OC)C1CCCCC1N=C2c1ccc(C(=O)c2ccncc2)cc1 (single isomer, unassigned; (-)) [Compound 32, (−)-cis-8,9-Dimethoxy-6-[4-(pyridyl-4-carbonyl)phenyl]-1,2,3,4,4a,10b-hexahydrophenanthridine]
−log IC50, inhibition of the PDE4 activity [1]: 7.45

SMILES: COc1cc2c(cc1OC)[C@@H]1CCCC[C@@H]1N=C2c1ccc(OCc2ccccc2)c(OCC2CC2)c1 [Compound 10, (−)-cis-6-(4-Benzyloxy-3-cyclopropylmethoxyphenyl)-8,9-dimethoxy-1,2,3,4,4a,10b-hexahydrophenanthridine]
−log IC50, inhibition of the PDE4 activity [1]: 8.09

From US6476025B1, “Phenylphennanthridines with PDE-IV inhibiting activity” (Altana Pharma AG, priority 1999, dated 2002)
